Measured values published in the NIST ThermoML archive (doi:10.1016/j.jct.2007.06.002).
Several values for one entry are separate records, joined by “and”; a condition that tells them apart may be missing. Equal entries are not always repeated. Numbers after ± are expanded uncertainties.

Legend:
[1] = refractive index (Na D-line) (dimensionless); xn = mol fraction of the nth substance listed; settings: 298.15 K, 101 kPa, Liquid
[2] = xn = mol fraction of the nth substance listed; settings: 101 kPa, Liquid
[3] = refractive index (Na D-line) (dimensionless); settings: 298.15 K; 101.33 kPa; Liquid
[4] = 101 kPa, Liquid

CCCCn1cc[n+](C)c1.F[P-](F)(F)(F)(F)F [1-butyl-3-methylimidazolium hexafluorophosphate] + COCCOC
Settings | refractive index
[1], x1 = 1 | 1.4089 ± 0.0013

[2], x1 = 1
Settings | mass density [kg/m3]
298.15 K | 1367.88 ± 4.3
308.15 K | 1359.33 ± 4.2
318.15 K | 1350.87 ± 4.2

CCCCn1cc[n+](C)c1.F[P-](F)(F)(F)(F)F [1-butyl-3-methylimidazolium hexafluorophosphate]
Settings | refractive index
[3] | 1.4089 ± 0.0013 and 1.4058 ± 0.0025

[4]
Settings | mass density [kg/m3]
298.15 K | 1367.88 ± 24
308.15 K | 1359.33 ± 23
318.15 K | 1350.87 ± 23

COCCO [2-methoxyethan-1-ol]
Settings | refractive index
[3] | 1.4004 ± 0.0013

[4]
Settings | mass density [kg/m3]
298.15 K | 960.05 ± 6
308.15 K | 950.81 ± 6.5
318.15 K | 941.45 ± 6.9

COCCOC [1,2-dimethoxyethane]
Settings | refractive index
[3] | 1.379 ± 0.0013

[4]
Settings | mass density [kg/m3]
298.15 K | 864.47 ± 1.5
308.15 K | 853.47 ± 1.6
318.15 K | 842.27 ± 1.6

COCCO [2-methoxyethan-1-ol] + CCCCn1cc[n+](C)c1.F[P-](F)(F)(F)(F)F
Settings | refractive index
[1], x2 = 0 | 1.4004 ± 0.0013

[2], x2 = 0
Settings | mass density [kg/m3]
298.15 K | 960.05 ± 6
308.15 K | 950.81 ± 6.5
318.15 K | 941.45 ± 6.9

CCCCn1cc[n+](C)c1.F[P-](F)(F)(F)(F)F [1-butyl-3-methylimidazolium hexafluorophosphate] + COCCOCCOC
Settings | refractive index
[1], x1 = 1 | 1.4058 ± 0.0025

[2], x1 = 1
Settings | mass density [kg/m3]
298.15 K | 1367.88 ± 4.3
308.15 K | 1359.33 ± 4.2
318.15 K | 1350.87 ± 4.2

COCCOCCOC [2,5,8-trioxanonane]
Settings | refractive index
[3] | 1.4058 ± 0.0025

[4]
Settings | mass density [kg/m3]
298.15 K | 939.1 ± 1.1
308.15 K | 929.6 ± 1.1
318.15 K | 919.3 ± 1.2

CCCCn1cc[n+](C)c1.F[P-](F)(F)(F)(F)F [1-butyl-3-methylimidazolium hexafluorophosphate] + COCCO
[1]
Settings | refractive index
x1 = 0.0037 | 1.4006 ± 0.0013
x1 = 0.0078 | 1.401 ± 0.0013
x1 = 0.012 | 1.4013 ± 0.0013
x1 = 0.0354 | 1.403 ± 0.0013
x1 = 0.0801 | 1.405 ± 0.0013
x1 = 0.1468 | 1.4065 ± 0.0013
x1 = 0.2542 | 1.4078 ± 0.0013
x1 = 0.396 | 1.4083 ± 0.0013
x1 = 0.6104 | 1.4086 ± 0.0013
x1 = 0.8127 | 1.4086 ± 0.0013
x1 = 0.8961 | 1.4089 ± 0.0013
x1 = 0.9345 | 1.409 ± 0.0013
x1 = 0.9749 | 1.409 ± 0.0013
x1 = 1 | 1.4089 ± 0.0013

mass density [kg/m3], [2]
Settings | 298.15 K | 308.15 K | 318.15 K
x1 = 0.0037 | 964.55 ± 5.8 | 962.53 ± 5.9 | 945.96 ± 6.7
x1 = 0.0078 | 969.43 ± 5.5 | 967.34 ± 5.7 | 950.88 ± 6.5
x1 = 0.012 | 974.36 ± 5.3 | 972.19 ± 5.4 | 955.82 ± 6.2
x1 = 0.0354 | 1000.13 ± 4 | 997.66 ± 4.2 | 981.7 ± 4.9
x1 = 0.0801 | 1042.78 ± 6.2 | 1039.97 ± 6 | 1024.48 ± 5.3
x1 = 0.1468 | 1094.24 ± 8.8 | 1091.12 ± 8.7 | 1076.09 ± 7.9
x1 = 0.2542 | 1157.35 ± 12 | 1153.41 ± 12 | 1139.53 ± 11
x1 = 0.396 | 1219.08 ± 15 | 1213.6 ± 15 | 1201.72 ± 14
x1 = 0.6104 | 1284.64 ± 19 | 1277.88 ± 19 | 1267.48 ± 18
x1 = 0.8127 | 1328.13 ± 21 | 1320.65 ± 21 | 1311.1 ± 21
x1 = 0.8961 | 1344.77 ± 22 | 1336.68 ± 22 | 1327.9 ± 22
x1 = 0.9345 | 1352.85 ± 23 | 1344.49 ± 23 | 1336 ± 22
x1 = 0.9749 | 1361.9 ± 24 | 1353.35 ± 23 | 1344.99 ± 23
x1 = 1 | 1367.88 ± 24 | 1359.33 ± 23 | 1350.87 ± 23

COCCOCCOC [2,5,8-trioxanonane] + CCCCn1cc[n+](C)c1.F[P-](F)(F)(F)(F)F
[1]
Settings | refractive index
x2 = 0 | 1.4058 ± 0.0025
x2 = 0.0039 | 1.4063 ± 0.0025
x2 = 0.0076 | 1.4065 ± 0.0025
x2 = 0.0127 | 1.407 ± 0.003
x2 = 0.0304 | 1.4081 ± 0.0025
x2 = 0.0505 | 1.4092 ± 0.0025
x2 = 0.1003 | 1.4113 ± 0.0025
x2 = 0.1617 | 1.4141 ± 0.0025
x2 = 0.207 | 1.4149 ± 0.0025
x2 = 0.3024 | 1.4148 ± 0.0025
x2 = 0.4018 | 1.4142 ± 0.0025
x2 = 0.5023 | 1.4138 ± 0.0025
x2 = 0.5623 | 1.4123 ± 0.0025
x2 = 0.7197 | 1.4098 ± 0.0025
x2 = 0.9477 | 1.4094 ± 0.0025
x2 = 0.9842 | 1.4089 ± 0.0025

mass density [kg/m3], [2]
Settings | 298.15 K | 308.15 K | 318.15 K
x2 = 0 | 939.1 ± 1.1 | 929.6 ± 1.1 | 919.3 ± 1.2
x2 = 0.0039 | 942.16 ± 1.1 | 932.57 ± 1.1 | 922.34 ± 1.2
x2 = 0.0076 | 945.03 ± 1 | 935.37 ± 1.1 | 925.2 ± 1.1
x2 = 0.0127 | 948.97 ± 1 | 939.22 ± 1.1 | 929.13 ± 1.1
x2 = 0.0304 | 962.27 ± 0.94 | 952.3 ± 1 | 942.43 ± 1.1
x2 = 0.0505 | 976.74 ± 0.88 | 966.73 ± 0.93 | 957.03 ± 0.97
x2 = 0.1003 | 1010.23 ± 0.85 | 1000.46 ± 0.79 | 990.93 ± 0.83
x2 = 0.1617 | 1047.81 ± 1.1 | 1038.53 ± 1 | 1028.98 ± 0.98
x2 = 0.207 | 1073.6 ± 1.3 | 1064.59 ± 1.2 | 1055.02 ± 1.2
x2 = 0.3024 | 1124.55 ± 1.7 | 1115.44 ± 1.6 | 1106.04 ± 1.6
x2 = 0.4018 | 1173.96 ± 2.1 | 1164.58 ± 2.1 | 1155.65 ± 2
x2 = 0.5023 | 1219.47 ± 2.5 | 1210.5 ± 2.5 | 1202.05 ± 2.4
x2 = 0.5623 | 1243.6 ± 2.8 | 1235.27 ± 2.7 | 1226.97 ± 2.6
x2 = 0.7197 | 1292.24 ± 3.3 | 1286.05 ± 3.3 | 1277.69 ± 3.2
x2 = 0.9477 | 1345.16 ± 4 | 1336.93 ± 4 | 1328.47 ± 3.9
x2 = 0.9842 | 1359.24 ± 4.2 | 1351.31 ± 4.1 | 1342.85 ± 4.1
x2 = 0.9952 | 1365.36 ± 4.3 | 1356.87 ± 4.2 | 1348.47 ± 4.1

COCCOC [1,2-dimethoxyethane] + CCCCn1cc[n+](C)c1.F[P-](F)(F)(F)(F)F
[1]
Settings | refractive index
x2 = 0 | 1.379 ± 0.0013
x2 = 0.0041 | 1.3781 ± 0.0013
x2 = 0.0125 | 1.3798 ± 0.0013
x2 = 0.0416 | 1.3859 ± 0.0013
x2 = 0.1055 | 1.3926 ± 0.0013
x2 = 0.1219 | 1.3941 ± 0.0013
x2 = 0.2474 | 1.4009 ± 0.0013
x2 = 0.3744 | 1.4043 ± 0.0013
x2 = 0.4937 | 1.4062 ± 0.0013
x2 = 0.7092 | 1.4076 ± 0.0013
x2 = 0.9329 | 1.4087 ± 0.0013

mass density [kg/m3], [2]
Settings | x2 = 0 | x2 = 0.0125 | x2 = 0.0416 | x2 = 0.1055 | x2 = 0.1219 | x2 = 0.2474 | x2 = 0.3744 | x2 = 0.4937 | x2 = 0.7092 | x2 = 0.9329
298.15 K | 864.47 ± 1.5 | 879.28 ± 1.4 | 912.09 ± 1.2 | 976.53 ± 0.91 | 991.51 ± 0.85 | 1089.14 ± 1.4 | 1164.22 ± 2 | 1219.89 ± 2.5 | 1296.36 ± 3.3 | 1353.78 ± 4.1
308.15 K | 853.47 ± 1.6 | 868.36 ± 1.5 | 901.37 ± 1.3 | 966.23 ± 0.96 | 981.31 ± 0.89 | 1079.57 ± 1.4 | 1155.09 ± 2 | 1211.03 ± 2.5 | 1287.72 ± 3.3 | 1345.27 ± 4
318.15 K | 842.27 ± 1.6 | 857.25 ± 1.6 | 890.47 ± 1.4 | 955.79 ± 1 | 971 ± 0.94 | 1069.97 ± 1.3 | 1145.98 ± 1.9 | 1202.22 ± 2.4 | 1279.25 ± 3.2 | 1336.85 ± 4
